Data from patent US5552156A, “Liposomal and micellular stabilization of camptothecin drugs” (Ohio State University, priority 1995, dated 1996).

What was measured:
Assay type in all cases: physicochemical
[1] = Fluorescence excitation and emission spectra of camptothecin drugs free in solution and bound to liposomes; conditions: for λMAX emission, DMPG: DMPG liposomes 0.29 M; for λMAX emission, DMPG / λMAX emission, PBS / λMAX emission, DMPC: pH 7.4, 37° C.; for λMAX emission, PBS: free in PBS; for Relative Fluorescence: in PBS, pH 7.4, at excitation and emission λMAX; for λMAX excitation: pH 7.4, 2 μM drug, PBS; for λMAX emission, DMPC: DMPC liposomes 0.29 M
From the text: The camptothecin drugs are intrinsically intensely fluorescent. Fluorescence is associated with the extended conjugation of the quinoline ring system. The liposomes of Examples 1-7 were characterized for the presence of the camptothecin drugs, using excitation and emission spectrography, and fluorescence anisotropy.
Steady-state fluorescence measurements were obtained on a SLM Model 4800C. spectrofluorometer with a thermostated cuvette compartment. This instrument was interfaced with an IBM PS/2 model 55 SX computer. Excitation and emission spectra were recorded with an excitation resolution of 8 nm and an emission resolution of 4 nm. In all cases spectra were corrected for background fluorescence and scatter from unlabeled lipids or from solvents by subtraction of the spectrum of a blank. Steady-state fluorescence intensity measurements were made in the absence of polarizer. Steady-state anisotropy (a) measurements were determined with the instrument in the "T-format" for simultaneous measurement of two polarized intensities. The alignment of polarizers were checked routinely using a dilute suspension of 0.25 μm polystyrene microspheres from Polysciences, Inc, Warrington, Pa., in water; anisotropy values of >0.99 were obtained. The anisotropy was calculated from a=(Ivv -GlVH)/(Ivv +GIVH), where G-IVH /IHH and the subscripts refer to vertical and horizontal orientations of the excitation and emission polarizers, respectively.
Anisotropy measurements for camptothecin, camptothecin carboxylate sodium salt, and 10,11-methylenedioxycamptothecin were conducted using exciting light of 370 nm and 420 nm long wave pass filters on each emission channel in order to isolate the fluorescence signal from background scatter and signal. For topotecan a 400 nm excitation wavelength and a 500 nm emission filter were used and for 9-aminocamptothecin a 375 nm excitation and a wavelength 420 nm emission filter were used. For AMC and CMC, a 370 nm excitation wavelength and a 400 nm emission filter were used. For 10-hydroxycamptothecin 375 nm excitation wavelength 500 nm emission filter was used. Emission filters were obtained from Oriel Corp. Stamford, Conn. The combination of exciting light and emission filters allows one to adequately separate the fluorescence from the background signal. The contribution of background fluorescence, together with scattered light, was typically less than 1% of the total intensity. Since the lactone ring of the camptothecin drug undergoes hydrolysis in aqueous medium, all measurements were completed within the shortest possible time, less than 1 minute after mixing the drug stock solution with PBS or the liposomes. In each case, analysis was initiated immediately after mixing the drug stock solution with PBS or with the liposomes. All measurements were performed at 37° C. unless otherwise noted.
The relative fluorescence intensity of 1×10^-6 M of camptothecin free in PBS buffer at 37° C. is shown. The emission spectra of the camptothecin was recorded using exciting light of 370 nm.
An exciting light of 390 nm was used to record the emission spectra of topotecan. A decrease in the emission intensity is observed for topotecan associated with the DMPG liposome.
All spectra were recorded using camptothecin drug concentrations of 2
μM. The DMPC and DMPG concentrations were 0.29 M. Experiments were
conducted in PBS buffer at 37° C.
Also found in Table II is a relative index of the emission intensity levels from these camptothecin drugs in PBS at their respective excitation and emission λMAX.

[2] = Overall association constant by fluorescence anisotropy titration, DMPC liposomes; conditions: for overall association constant K, DMPC: DMPC (electroneutral, fluid phase), PBS, 37° C.; for bound drug level, DMPC: DMPC liposomes, 0.29M lipid, estimated; for binding affinity for liposomes (ranking): each type of liposome
Method: While the spectral changes provide qualitative evidence that the camptothecin drugs bind the liposome membranes, fluorescence anisotropy titration, offers the most sensitive means for quantitatively assessing the extent of the binding. The fluorescence anisotropy titration was performed according to the method of Burke and Tritton, Biochemistry 24: 1768-1776 (1985).
The concentrations of free camptothecin drugs and camptothecin drugs associated with liposomes were determined at various lipid concentrations. All experiments were conducted in glass tubes pretreated with a silating agent, Surfacil, from Pearce Chemical, Rockford, Ill. The titration was conducted at camptothecin drug concentration of 1×10^-6 M in PBS at 37° C. Anisotropy values at each lipid concentration were determined within less than 30 seconds following the addition of the camptothecin drugs to the liposome suspension. The (a) values were determined for fixed drug concentration, typically 2 μM, while the lipid concentration was varied from 0 to 0.29M. By varying the lipid concentration rather than varying the drug concentration, the problem of self-association phenomenon which occurs for camptothecin drugs concentrations in excess of 10 μM is avoided. Also, the well-known phenomenon known as inner filter effect which occurs using fluorescent material at high optical densities is a is avoided.
Adsorption isotherms like those shown in FIGS. 4A and 4B were used to determine overall association constants for the camptothecin drugs. Overall association constants are defined as: […]
where [AB ] represents the concentration of the camptothecin drug bound to the vesicle membrane, [AF ] represents the concentration of free drug, and [L] represents the total lipid concentration in the liposome suspension. This equation is valid when the concentration of free lipid is approximately equal to the concentration of total lipid, that is, the concentration of free lipid is in great excess over the concentration of bound drug. Provided this concentration is satisfied, K may be determined from the inverse of the slope of a double reciprocal plot according to (Burke and Tritton, Biochemistry 24:1776, 1985). In such a plot, 1/bound fraction of the total camptothecin drug is plotted vs. 1/[lipid], with a y-intercept value of 1.
FIG. 6A is the double-reciprocal plot for the associations of CMC, camptothecin, camptothecin carboylate sodium salt and topotecan with DMPC at 37° C.
The stabilization of camptothecin drugs was determined using different lipids. Three types of lipids (and thus 3 types of membranes) were examined: fluid-phase and electroneutral L-α-dimyristoylphosphatidylcholine (DMPC); fluid-phase and negatively-charged L-α-dimyristoylphosphatidylglycerol (DMPG), and solid-phase and electroneutral L-α-distearoylphosphatidylcholine (DSPC). While DMPC and DMPG have identical chain length, the charge on their head groups differ. DMPC and DSPC have identical head groups, but DMPC has acyl chains having 14 carbons per chain, which are four carbons shorter than the DSPC, which has 18 carbons per chain. This difference of 4-carbon chain length results in DMPC being fluid-phase at 37° C. while DSPC is solid-phase. The 7 camptothecin drugs listed in Table III were combined with liposomes containing the above lipids.
FIGS. 4A and 4B show the extent of camptothecin drug binding to liposomes as a function of lipid concentration for DMPC and DMPG liposomes. DMPC liposomes were made as in Example 1, at lipid concentrations from 0 to 0.29M, using CMC, 10-hydroxycamptothecin, 10,11-methylenedioxy-camptothecin, topotecan, camptothecin, and camptothecin carboxylate sodium salt, as shown in FIG. 4B. DMPG liposomes were made as in Example 2, at lipid concentrations from 0 to 0.29M, using 9-chloro-10,11-methylenedioxycamptothecin CMC, 10,11-methylenedioxycamptothecin, camptothecin, and topotecan, 9-aminocamptothecin, as shown in FIG. 4A. […]

[3] = Overall association constant by fluorescence anisotropy titration, DSPC liposomes; conditions: for overall association constant K, DSPC: DSPC (electroneutral, solid phase), PBS, 37° C.
Method: The concentrations of free camptothecin drugs and camptothecin drugs associated with liposomes were determined at various lipid concentrations. […] The titration was conducted at camptothecin drug concentration of 1×10^-6 M in PBS at 37° C. Anisotropy values at each lipid concentration were determined within less than 30 seconds following the addition of the camptothecin drugs to the liposome suspension. […] By varying the lipid concentration rather than varying the drug concentration, the problem of self-association phenomenon which occurs for camptothecin drugs concentrations in excess of 10 μM is avoided. Also, the well-known phenomenon known as inner filter effect which occurs using fluorescent material at high optical densities is a is avoided.

Compound | λMAX emission, DMPG [1] [nm] | λMAX emission, PBS [1] [nm] | Relative Fluorescence [1] | λMAX excitation ([1]; 37° C.) [nm] | overall association constant K, DMPC [2] [M⁻¹] | bound drug level, DMPC [2] [%] | binding affinity for liposomes (ranking) [2] | overall association constant K, DSPC [3] [M⁻¹] | λMAX emission, DMPC [1] [nm] | spectral shift on association with DMPC liposomes ([1]; DMPC, relative to free drug) | blue shift of emission λmax on binding DMPG liposomes ([1]; relative to free camptothecin, 1×10^-6 M, 37° C.) | binding preference for DSPC liposomes over DMPC liposomes ([3]; solid-phase DSPC over fluid-phase DMPC) | shifting in the emission spectrum with DMPG liposomes ([1]; 1 μM, DMPG liposomes) | reduced propensity to bind electroneutral liposome membranes relative to CMC ([2]; DMPC) | binding preference for DSPC liposomes over DMPC liposomes ([3]; dspc over dmpc liposomes)
CCC1(O)C(=O)OCc2c1cc1n(c2=O)Cc2cc3c(Cl)c4c(cc3nc2-1)OCO4 (stereo not drawn) [9-chloro-10,11-methylenedioxycamptothecin] | 417 | 410 | 1 | 394 | 400 | 99 | highest binding affinity for each type of liposome | 500 |  |  |  |  |  |  | 
CCC1(O)C(=O)OCc2c1cc1n(c2=O)Cc2cc3cc4c(cc3nc2-1)OCO4 (stereo not drawn) [10,11-methylenedioxycamptothecin] | 408 | 410 | 1 | 395 |  |  | intermediate binding affinities |  | 408 |  |  |  |  |  | 
CCC1(O)C(=O)OCc2c1cc1n(c2=O)Cc2cc3cc(O)ccc3nc2-1 (stereo not drawn) [10-hydroxycamptothecin] | 550 | 561 | 0.5 | 392 | 75 |  |  |  | 558 |  |  |  |  |  | 
CC[C@@]1(O)C(=O)OCc2c1cc1n(c2=O)Cc2cc3ccccc3nc2-1 [camptothecin] | 422 | 438 | 1 | 366 |  | 97 | intermediate binding affinities | 300 | 433 | about 5 nm | about 16 nm | 3 -fold |  |  | 
CC[C@@]1(O)C(=O)OCc2c1cc1n(c2=O)Cc2cc3c(CN(C)C)c(O)ccc3nc2-1 [topotecan] | 533 | 537 | 1 | 410 | 10 | 74 | lowest binding affinity for liposomes |  | 538 |  |  |  | Only a slight shifting in the emission spectrum | 40 -fold | 5 -fold
